Experiments:
[1] = target: T1, Nitric oxide synthase, inducible (Mus musculus, UniProt P29477); test: The compound was tested for competitive antagonist of Nitric oxide synthase; type: functional
T1 sequence (P29477 whole entry): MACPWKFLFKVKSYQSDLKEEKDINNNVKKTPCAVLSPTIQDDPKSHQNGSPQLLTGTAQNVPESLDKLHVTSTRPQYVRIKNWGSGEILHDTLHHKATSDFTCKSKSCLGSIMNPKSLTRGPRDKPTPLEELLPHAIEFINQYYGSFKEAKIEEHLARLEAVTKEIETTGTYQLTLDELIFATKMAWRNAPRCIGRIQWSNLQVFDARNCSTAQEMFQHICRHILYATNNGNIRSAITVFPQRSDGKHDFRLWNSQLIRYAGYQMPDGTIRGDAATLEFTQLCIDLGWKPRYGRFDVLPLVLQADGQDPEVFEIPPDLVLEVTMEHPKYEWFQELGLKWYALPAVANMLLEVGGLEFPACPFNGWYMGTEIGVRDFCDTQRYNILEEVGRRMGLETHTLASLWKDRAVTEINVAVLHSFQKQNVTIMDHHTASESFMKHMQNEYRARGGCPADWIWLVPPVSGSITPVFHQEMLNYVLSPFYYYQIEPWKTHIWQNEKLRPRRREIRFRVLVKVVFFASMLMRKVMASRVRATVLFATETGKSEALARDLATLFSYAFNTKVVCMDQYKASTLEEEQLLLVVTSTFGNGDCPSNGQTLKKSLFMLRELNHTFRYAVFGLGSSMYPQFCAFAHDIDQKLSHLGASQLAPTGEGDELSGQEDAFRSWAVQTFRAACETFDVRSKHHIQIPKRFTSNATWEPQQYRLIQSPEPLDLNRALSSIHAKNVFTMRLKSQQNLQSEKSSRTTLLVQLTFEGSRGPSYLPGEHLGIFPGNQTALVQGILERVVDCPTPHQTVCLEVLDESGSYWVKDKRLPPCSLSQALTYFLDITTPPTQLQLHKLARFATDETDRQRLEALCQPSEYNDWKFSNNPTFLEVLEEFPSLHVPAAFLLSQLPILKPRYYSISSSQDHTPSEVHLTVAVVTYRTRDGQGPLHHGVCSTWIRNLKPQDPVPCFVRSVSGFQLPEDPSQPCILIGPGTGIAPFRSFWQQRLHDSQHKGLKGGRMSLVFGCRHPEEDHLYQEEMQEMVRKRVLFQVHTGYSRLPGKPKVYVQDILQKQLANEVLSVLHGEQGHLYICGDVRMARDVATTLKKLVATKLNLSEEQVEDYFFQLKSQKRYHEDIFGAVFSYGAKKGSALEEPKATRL

[2] = target: T2, Nitric oxide synthase, inducible (Mus musculus) (UniProt P29477)
T2 sequence (whole entry): T1 sequence (P29477 whole entry)
Description: Pseudo-first order inactivation rate constant against nitric oxide synthase was determined

[3] = target: T1, Nitric oxide synthase, inducible; test: Compound was tested for competitive antagonist of Nitric oxide synthase; type: functional

| Ki [1] [µM] | kinact [2] [min⁻¹] | Ki [3] [µM] | SMILES |
| --- | --- | --- | --- |
| 37.7 |  |  | CC(=NO)NCCC[C@H](N)C(=O)O |
| 41.1 |  |  | CC(=NO)NCCCC[C@H](N)C(=O)O |
| 2.16 | 0.35 |  | CC(=N)NCCCC[C@H](N)C(=O)O [L-NIL] |
|  | 0.16 | 1.42 | CC(=N)NCCC[C@H](N)C(=O)O [L-NIO] |
